Active and inactive are the calls of the source. The calls are words filed in the database; no cut-off is given here. Numbered stars: 1 amine (or outer) side, 2 acyl side, 3 side chain; on linkers, the order of the positions; unused ones are H or OH. Bridge positions count the residues as written; N and C are the ends. Square brackets hold non-standard residues; d marks the D form. Peptide text beside a SMILES is read from it. I, II: the chains in the order shown. X2 = NCCCC[C@H](N[*:2])C(=O)C1CCCCN([C@@H](CCC(=O)O)C(=O)[*:1])C(=O)C1; X1 = O=C(CC[C@@H]1CCCN1[*:1])[*:2]; β3hI = CC[C@H](C)[C@H](N)CC(=O)O; β3hQ = NC(=O)CC[C@H](N)CC(=O)O; β3hK = NCCCC[C@H](N)CC(=O)O; β3hS = N[C@@H](CO)CC(=O)O; Nle = CCCC[C@H](N)C(=O)O; β3hA = C[C@H](N)CC(=O)O
Key:
Leishmania infantum [1] = experiment: Leishmanicidal activity against Leishmania infantum MCAN/ES/89/IPZ229/1/89 promastigotes after 24 hrs by propidium iodide staining based flow cytometry; type: functional; settings: MCAN/ES/89/IPZ229/1/89, 24 h
[2] = Cytotoxicity against human THP1 cells after 24 hrs by propidium iodide staining based flow cytometry; type: cell-based; settings: THP-1 cells, read-out: LC50
[3] = Selectivity index, ratio of LC50 for cytotoxicity against human THP1 cells to LC50 for leishmanicidal activity against Leishmania infantum amastigotes; type: toxicity, cell-based; settings: THP-1 cells, read-out: RatioLC50
Leishmania infantum [4] = experiment: Leishmanicidal activity against Leishmania infantum amastigotes after 24 hrs by propidium iodide staining based flow cytometry; type: functional
[5] = Selectivity index, ratio of LC50 for cytotoxicity against human THP1 cells to LC50 for leishmanicidal activity against Leishmania infantum MCAN/ES/89/IPZ229/1/89 promastigotes; type: toxicity, cell-based; settings: THP-1 cells, read-out: RatioLC50
Leishmania infantum [6] = experiment: Leishmanicidal activity against Leishmania infantum amastigotes at 25 uM after 24 hrs by propidium iodide staining based flow cytometry; type: functional, organism-based
Proteinase K = Proteinase K (Engyodontium album, UniProt P06873); experiment: Stability assessed as Tritirachium album proteinase K-mediated compound degradation by measuring half life at 50 uM by HPLC method; type: ADME; settings: parengyodontium album
Proteinase K, sequence (P06873 whole entry): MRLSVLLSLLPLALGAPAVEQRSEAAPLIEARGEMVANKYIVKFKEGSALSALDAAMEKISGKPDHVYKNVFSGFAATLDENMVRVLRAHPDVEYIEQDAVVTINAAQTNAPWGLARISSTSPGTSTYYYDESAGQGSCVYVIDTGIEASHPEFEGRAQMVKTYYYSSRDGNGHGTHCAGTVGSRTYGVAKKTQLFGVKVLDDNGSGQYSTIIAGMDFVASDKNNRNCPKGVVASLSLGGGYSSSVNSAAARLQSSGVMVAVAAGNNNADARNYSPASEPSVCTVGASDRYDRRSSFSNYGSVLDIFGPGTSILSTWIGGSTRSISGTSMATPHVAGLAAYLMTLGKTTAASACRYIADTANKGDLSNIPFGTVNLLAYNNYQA

Trypanothione reductase [7] = target: T1, Trypanothione reductase (Leishmania infantum, UniProt A4HSF7); experiment: Inhibition of dimerization of HIS/FLAG tagged Leishmania infantum trypanothione reductase incubated for 16 hrs in presence of dimerization buffer by ELISA
T1 sequence (A4HSF7 whole entry): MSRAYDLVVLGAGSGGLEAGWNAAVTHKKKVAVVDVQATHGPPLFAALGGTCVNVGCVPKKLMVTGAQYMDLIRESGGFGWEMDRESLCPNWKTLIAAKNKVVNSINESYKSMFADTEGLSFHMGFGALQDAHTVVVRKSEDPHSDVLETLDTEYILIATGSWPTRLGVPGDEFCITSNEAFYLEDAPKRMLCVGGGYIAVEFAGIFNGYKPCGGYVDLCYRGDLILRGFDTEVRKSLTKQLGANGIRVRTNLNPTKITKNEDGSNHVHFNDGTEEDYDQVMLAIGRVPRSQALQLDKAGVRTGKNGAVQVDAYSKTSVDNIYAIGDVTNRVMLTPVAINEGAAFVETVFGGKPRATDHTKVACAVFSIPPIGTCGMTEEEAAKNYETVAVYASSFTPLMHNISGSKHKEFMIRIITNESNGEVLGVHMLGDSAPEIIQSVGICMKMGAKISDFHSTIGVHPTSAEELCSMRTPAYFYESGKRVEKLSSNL

Trypanothione reductase [8] = target: T1, Trypanothione reductase; experiment: Inhibition of oxidoreductase activity of recombinant Leishmania infantum trypanothione reductase pre-incubated for 10 mins before T[S]2 and NADPH addition
Leishmania infantum [9] = experiment: Leishmanicidal activity against Leishmania infantum MCAN/ES/89/IPZ229/1/89 promastigotes at 25 uM after 24 hrs by propidium iodide staining based flow cytometry; type: functional, organism-based

Row | SMILES | LC50 (Leishmania infantum [1]) | CC50 at 24 h [2] | selectivity ratio [3] | LC50 (Leishmania infantum [4]) | selectivity ratio [5] | Activity (Leishmania infantum [6]) | half-life at 50 µM (Proteinase K) | IC50 (Trypanothione reductase [7]) | IC50 (Trypanothione reductase [8]) | Activity (Leishmania infantum [9])
1 | CCCC[C@H](NC(=O)[C@H](CCCCN)NC(=O)[C@H](CCCC)NC(=O)[C@H](CO)NC(=O)[C@@H](NC(=O)CNC(=O)[C@H](CCCCN)NC(=O)[C@H](CO)NC(=O)[C@H](CCC(N)=O)NC(=O)[C@@H](NC(=O)[C@H](CCC(=O)O)N1CCCCC(C(=O)[C@H](CCCCN)NC(=O)[C@@H]2CCCN2C(=O)[C@H](CCCNC(=N)N)NC(=O)[C@H](CCCNC(=N)N)NC(=O)[C@H](CCCNC(=N)N)NC(=O)[C@H](CCCNC(=N)N)NC(=O)[C@H](CCCNC(=N)N)NC(=O)[C@H](CCCNC(=N)N)NC(=O)[C@H](CCCNC(=N)N)NC(=O)[C@H](CCCNC(=N)N)NC(=O)[C@@H](N)CCCNC(=N)N)CC1=O)[C@@H](C)CC)[C@@H](C)CC)C(=O)O (stereo partly specified) (I: IQSKGIS[Nle]K[Nle]-OH / II: H-RRRRRRRRRP; linker I:N-II:C via X2) | 3.5 µM | 2.5 µM | < 1 | 2.8 µM | < 1 |  |  |  |  | 
2 | CC[C@H](C)[C@H](NC(=O)CNC(=O)[C@@H](NC(=O)[C@H](CO)NC(=O)[C@H](CCC(N)=O)NC(=O)[C@@H](NC(=O)[C@@H](NC(=O)[C@H](CCCCN)NC(=O)[C@@H]1CCCN1C(=O)[C@H](CCCNC(=N)N)NC(=O)[C@H](CCCNC(=N)N)NC(=O)[C@H](CCCNC(=N)N)NC(=O)[C@H](CCCNC(=N)N)NC(=O)[C@H](CCCNC(=N)N)NC(=O)[C@H](CCCNC(=N)N)NC(=O)[C@H](CCCNC(=N)N)NC(=O)[C@H](CCCNC(=N)N)NC(=O)[C@@H](N)CCCNC(=N)N)[C@@H](C)CC)[C@@H](C)CC)C(C)C)C(=O)N[C@@H](CO)C(=O)N[C@@H](CC(C)C)C(=O)N[C@@H](CCCCN)C(=O)N[C@@H](CC(C)C)C(=O)O (H-RRRRRRRRRPKIIQSVGISLKL-OH) | 4.6 µM | 1.7 µM | < 1 | 3.5 µM | < 1 |  |  |  |  | 
3 | CCCC[C@H](NC(=O)[C@H](CCCCN)NC(=O)[C@H](CC(C)C)NC(=O)C[C@H](CO)NC(=O)[C@@H](NC(=O)CNC(=O)[C@@H](NC(=O)C[C@H](CO)NC(=O)[C@H](CCC(N)=O)NC(=O)[C@@H](NC(=O)C[C@@H](NC(=O)[C@H](CCCCN)NC(=O)[C@@H]1CCCN1C(=O)[C@H](CCCNC(=N)N)NC(=O)[C@H](CCCNC(=N)N)NC(=O)[C@H](CCCNC(=N)N)NC(=O)[C@H](CCCNC(=N)N)NC(=O)[C@H](CCCNC(=N)N)NC(=O)[C@H](CCCNC(=N)N)NC(=O)[C@H](CCCNC(=N)N)NC(=O)[C@H](CCCNC(=N)N)NC(=O)[C@@H](N)CCCNC(=N)N)[C@@H](C)CC)[C@@H](C)CC)C(C)C)[C@@H](C)CC)C(N)=O (H-RRRRRRRRRPK[β3hI]IQ[β3hS]VGI[β3hS]LK[Nle]-NH2) | 0.98 µM | 5.8 µM | 3.1 | 1.9 µM | 5.9 |  |  |  |  | 
4 | CCCC[C@@H](CC(N)=O)NC(=O)[C@H](CCCCN)NC(=O)[C@H](CCCC)NC(=O)C[C@H](CO)NC(=O)[C@@H](NC(=O)CNC(=O)[C@@H](NC(=O)C[C@H](CO)NC(=O)[C@H](CCC(N)=O)NC(=O)[C@@H](NC(=O)C[C@H](NC(=O)[C@H](CCCCN)NC(=O)C[C@@H]1CCCN1C(C)=O)[C@@H](C)CC)[C@@H](C)CC)C(C)C)[C@@H](C)CC |  |  |  |  |  | inactive | 8.62 h | 21.7 µM | 3.47 µM | inactive
5 | CCCCCCCCCCCCCCCCOP(=O)([O-])OCC[N+](C)(C)C [MILTEFOSINE] |  |  | 9.5 | 2 µM | < 1 |  |  |  |  | 
6 | CCCC[C@H](NC(=O)C[C@H](CCCCN)NC(=O)[C@H](CCCC)NC(=O)C[C@H](CO)NC(=O)[C@@H](NC(=O)C[C@H](C)NC(=O)[C@@H](NC(=O)C[C@H](CO)NC(=O)C[C@H](CCC(N)=O)NC(=O)[C@@H](NC(=O)[C@@H](NC(=O)[C@H](CCCCN)NC(=O)CC[C@@H]1CCCN1C(C)=O)[C@@H](C)CC)[C@@H](C)CC)C(C)C)[C@@H](C)CC)C(N)=O (Ac-[X1]KII[β3hQ][β3hS]V[β3hA]I[β3hS][Nle][β3hK][Nle]-NH2) |  |  |  |  |  | inactive | < 0.25 h | 12.8 µM | 1.65 µM | inactive
7 | CC[C@H](C)[C@H](NC(=O)CNC(=O)[C@@H](NC(=O)C[C@H](CO)NC(=O)[C@H](CCC(N)=O)NC(=O)[C@@H](NC(=O)C[C@@H](NC(=O)[C@H](CCCCN)NC(=O)[C@@H]1CCCN1C(C)=O)[C@@H](C)CC)[C@@H](C)CC)C(C)C)C(N)=O |  |  |  |  |  | inactive | 3.97 h | 22.3 µM | > 75 µM | inactive
8 | CCCC[C@H](NC(=O)C[C@H](CCCCN)NC(=O)[C@H](CCCC)NC(=O)C[C@H](CO)NC(=O)C[C@@H](NC(=O)CNC(=O)[C@@H](NC(=O)C[C@H](CO)NC(=O)C[C@H](CCC(N)=O)NC(=O)[C@@H](NC(=O)[C@@H](NC(=O)C[C@H](CCCCN)NC(=O)C[C@@H]1CCCN1C(C)=O)[C@@H](C)CC)[C@@H](C)CC)C(C)C)[C@@H](C)CC)C(N)=O |  |  |  |  |  | inactive | 5.28 h | 15.5 µM | 9.28 µM | inactive
9 | CCCC[C@@H](CC(=O)N[C@@H](CCCCN)C(=O)N[C@@H](CC(N)=O)C(N)=O)NC(=O)[C@H](CO)NC(=O)[C@@H](NC(=O)CNC(=O)C[C@@H](NC(=O)[C@H](CO)NC(=O)[C@H](CCC(N)=O)NC(=O)C(NC(=O)C[C@@H](NC(=O)[C@H](CCCCN)NC(=O)[C@@H]1CCCN1C(C)=O)[C@@H](C)CC)[C@@H](C)CC)C(C)C)[C@@H](C)CC (single isomer, unassigned) |  |  |  |  |  | inactive | < 0.25 h | 9.72 µM | 18.2 µM | inactive
10 | CCCCCCCCCCCCCCCCCCOC[C@H](COP(=O)([O-])OCC[N+](C)(C)C)OC [(R)-EDELFOSINE] | 9 µM | 1 µM | 1.7 | 0.6 µM | < 1 |  |  |  |  | 
11 | N=C(N)NCCC[C@H](NC(=O)[C@H](CCCNC(=N)N)NC(=O)[C@H](CCCNC(=N)N)NC(=O)[C@H](CCCNC(=N)N)NC(=O)[C@H](CCCNC(=N)N)NC(=O)[C@H](CCCNC(=N)N)NC(=O)[C@H](CCCNC(=N)N)NC(=O)[C@H](CCCNC(=N)N)NC(=O)[C@@H](N)CCCNC(=N)N)C(N)=O | > 25 µM | > 25 µM |  | > 25 µM |  |  |  |  |  | 

Reference: ChEMBL document CHEMBL4130478, “Improved proteolytic stability and potent activity against Leishmania infantum trypanothione reductase of α/β-peptide foldamers conjugated to cell-penetrating peptides” (Eur J Med Chem, 2017)
